# Data: patent publication US4335249A, “Herbicidal diphenyl ethers, sulfides, sulfoxides and sulfones” (Rohm and Haas Company, priority 1976, dated 1982)
# How the values were obtained:
# Format in all cases: in vivo
# [1] = test system: cocklebur (Xanthium pensylvanicum); assay: Preemergence herbicidal activity, cocklebur; settings: Xanthium strumarium, pre-emergence, 336 h, 2 lb/A
# Procedure: (§1) Using the procedure described below, compounds of the invention are evaluated for control of several of the following plant species:
# (§2) The following est procedure is employed. Seeds of selected crops and weeds are planted in soil in flats. For preemergence tests, the flats are treated with the test compound immediately after the planting. For postemergence tests, the seeds are allowed to germinate, and after two weeks the flats are treated with the test compound. The compound to be evaluated is dissolved in acetone, diluted with water, and sprayed over the flats using a carrier volume equivalent to 50 gallons per acre at the rate of application (pounds per acre, lb/A.) specified in the tables. About two weeks after the application of the test compound, the state of growth of the plants is observed and the phytotoxic effect of the compound is evaluated. Tables III and IV give the average percent control achieved by test compounds in terms of the percent of the plants which are killed by the compounds.
# marigold (Tagetes spp.) [2] = assay: Preemergence herbicidal activity, marigold; settings: pre-emergence, 336 h, 2 lb/A
# Procedure: as §1, §2
# [3] = test system: morningglory (Ipomoca spp.); assay: Preemergence herbicidal activity, morningglory; settings: Ipomoea, pre-emergence, 336 h, 2 lb/A
# Procedure: as §1, §2
# [4] = test system: tomato (Lycopersicon esculentum); assay: Preemergence herbicidal activity, tomato; settings: Solanum lycopersicum, pre-emergence, 336 h; Pre, 2 lb/A
# Procedure: as §1, §2
# [5] = test system: velvetleaf (Abutilon theophrasti); assay: Preemergence herbicidal activity, velvetleaf; settings: Abutilon theophrasti, pre-emergence, 336 h; Pre, 2 lb/A
# Procedure: as §1, §2
# [6] = test system: barnyardgrass (Echinochloa crusgalli); assay: Preemergence herbicidal activity, barnyardgrass; settings: Echinochloa crus-galli, pre-emergence, 336 h; Pre, 2 lb/A
# Procedure: as §1
# (§3) The following est procedure is employed. Seeds of selected crops and weeds are planted in soil in flats. For preemergence tests, the flats are treated with the test compound immediately after the planting. For postemergence tests, the seeds are allowed to germinate, and after two weeks the flats are treated with the test compound. The compound to be evaluated is dissolved in acetone, diluted with water, and sprayed over the flats using a carrier volume equivalent to 50 gallons per acre at the rate of application (pounds per acre, lb/A.) specified in the tables.
# [7] = test system: downybrome (Bromus tectorum); assay: Preemergence herbicidal activity, downybrome; settings: Bromus tectorum, pre-emergence, 336 h, Pre, 2 lb/A
# Procedure: as §1, §2
# foxtail (Setaria spp.) [8] = assay: Preemergence herbicidal activity, foxtail; settings: Setaria, pre-emergence, 336 h; Pre, 2 lb/A
# Procedure: as §1, §2
# [9] = test system: yellow nutsedge (Cyperus esculentus); assay: Preemergence herbicidal activity, yellow nutsedge; settings: Cyperus, pre-emergence, 336 h, 2 lb/A
# Procedure: as §1, §2
# wild oats (Avena fatua) [10] = assay: Preemergence herbicidal activity, wild oats; settings: Avena fatua, pre-emergence, 336 h, Pre, 2 lb/A; read-out: % control, Wild oat
# Procedure: as §1, §2
# [11] = test system: cocklebur (Xanthium pensylvanicum); assay: Postemergence herbicidal activity, cocklebur; settings: Xanthium strumarium, post-emergence, 336 h, 2 lb/A
# Procedure: as §1, §2
# marigold (Tagetes spp.) [12] = assay: Postemergence herbicidal activity, marigold; settings: post-emergence, 336 h, 2 lb/A
# Procedure: as §1, §2
# [13] = test system: morningglory (Ipomoca spp.); assay: Postemergence herbicidal activity, morningglory; settings: Ipomoea, post-emergence, 336 h, 2 lb/A
# Procedure: as §1, §2
# [14] = test system: tomato (Lycopersicon esculentum); assay: Postemergence herbicidal activity, tomato; settings: Solanum lycopersicum, post-emergence, 336 h, Post, 2 lb/A
# Procedure: as §1, §2
# [15] = test system: velvetleaf (Abutilon theophrasti); assay: Postemergence herbicidal activity, velvetleaf; settings: Abutilon theophrasti, post-emergence, 336 h, 2 lb/A
# Procedure: as §1, §3
# [16] = test system: barnyardgrass (Echinochloa crusgalli); assay: Postemergence herbicidal activity, barnyardgrass; settings: Echinochloa crus-galli, post-emergence, 336 h; Post, 2 lb/A
# Procedure: as §1, §3
# [17] = test system: downybrome (Bromus tectorum); assay: Postemergence herbicidal activity, downybrome; settings: Bromus tectorum, post-emergence, 336 h, Post, 2 lb/A
# Procedure: as §1, §2
# foxtail (Setaria spp.) [18] = assay: Postemergence herbicidal activity, foxtail; settings: Setaria, post-emergence, 336 h, Post, 2 lb/A
# Procedure: as §1, §2
# [19] = test system: yellow nutsedge (Cyperus esculentus); assay: Postemergence herbicidal activity, yellow nutsedge; settings: Cyperus, post-emergence, 336 h, 2 lb/A
# Procedure: as §1, §2
# wild oats (Avena fatua) [20] = assay: Postemergence herbicidal activity, wild oats; settings: Avena fatua, post-emergence, 336 h, Post, 2 lb/A; read-out: % control, Wild oat
# Procedure: as §1, §2
SMILES,pest or weed control at 2241.7 g/ha [1],pest or weed control at 2241.7 g/ha (marigold (Tagetes spp.) [2]),pest or weed control at 2241.7 g/ha [3],pest or weed control at 2241.7 g/ha [4],pest or weed control at 2241.7 g/ha [5],pest or weed control at 2241.7 g/ha [6],pest or weed control at 2241.7 g/ha [7],pest or weed control at 2241.7 g/ha (foxtail (Setaria spp.) [8]),pest or weed control at 2241.7 g/ha [9],pest or weed control at 2241.7 g/ha (wild oats (Avena fatua) [10]),pest or weed control at 2241.7 g/ha [11],pest or weed control at 2241.7 g/ha (marigold (Tagetes spp.) [12]),pest or weed control at 2241.7 g/ha [13],pest or weed control at 2241.7 g/ha [14],pest or weed control at 2241.7 g/ha [15],pest or weed control at 2241.7 g/ha [16],pest or weed control at 2241.7 g/ha [17],pest or weed control at 2241.7 g/ha (foxtail (Setaria spp.) [18]),pest or weed control at 2241.7 g/ha [19],pest or weed control at 2241.7 g/ha (wild oats (Avena fatua) [20])
"CCOC(=O)C(C)Oc1ccc(Sc2ccc(C(F)(F)F)cc2[N+](=O)[O-])cc1 (centres unmarked) [Example 48, Ethyl 2-[4-(2-nitro-4-trifluoromethylphenylthio)phenoxy] propionate]",0%,0%,0%,0%,0%,95%,30%,95%,0%,0%,0%,0%,0%,0%,0%,60%,0%,20%,0%,80%
CCOC(=O)C(Oc1ccc(Oc2ccc(C(F)(F)F)cc2Cl)cc1)C(C)C (centres unmarked) [Example 28],0%,0%,70%,0%,0%,95%,30%,90%,0%,0%,0%,0%,0%,0%,0%,60%,20%,99%,0%,60%
CC(Oc1ccc(Oc2ccc(C(F)(F)F)cc2Cl)cc1)C(=O)OCCN(C)C (centres unmarked) [Example 31],0%,0%,70%,0%,0%,100%,30%,100%,0%,40%,60%,40%,80%,90%,80%,100%,100%,100%,0%,99%
CCOC(=O)C(C)Oc1ccc(Sc2ccc(C(F)(F)F)cc2C#N)cc1 (centres unmarked) [Example 47],0%,0%,0%,0%,0%,100%,40%,95%,0%,100%,0%,0%,0%,0%,0%,100%,99%,99%,0%,99%
